Measured values taken from patent US5596009A, “Fused benzeneoxyacetic acid derivatives” (Ono Pharmaceutical Co., Ltd., priority 1991, dated 1997).

Experiments:
[1] = target: T1, PGl2 receptor (Homo sapiens, UniProt P43119); experiment: Inhibitory activity on binding of ^3 H-iloprost to PGl2 receptor on human blood platelet membrane fraction; conditions: human blood platelet membrane fraction (0.3 mg protein), 10 nM [^3 H]-iloprost, pH 7.4, 24° C., 30 min; read-out: IC50 (inhibition of [^3 H]-iloprost binding to PGl2 receptor)
T1 construct: human blood platelet membrane fraction (0.3 mg protein) was added; from tissue; host or cells: human blood platelets (membrane fraction)
Method: i) Inhibitory activity on binding of ^3 H-iloprost to PGl2 receptor on human blood platelet membrane fraction
50 mM Tris-HCl buffer (pH 7.4) containing 15 mM MgCl2, 5 mM EDTA and 10 nM [^3 H]-iloprost were used as reaction medium. To 0.2 ml of the reaction medium, human blood platelet membrane fraction (0.3 mg protein) was added with or without a test compound. The mixture was incubated at 24° C. for 30 min. After incubation, 4 ml of ice-cold 10 mM Tris-HCl buffer (pH 7.4) was added to the reaction mixture, and filtered through Whatman GF/B glass fiber filter, and washed 4 times with 4 ml of ice-cold 10 mM Tris-HCl buffer (pH 7.4) to separate bound and free [^3 H]-iloprost. After washing, the filter was dried and radioactivity was counted. Non-specific binding was obtained by performing parallel binding experiments in the presence of 10 μM non-labelled iloprost. Specific binding was calculated by subtracting the non-specific binding from the total binding.
The inhibitory effect of test compound was calculated from the following equation.
The percentage of inhibition (%)=100-(B1 /B0 ×100)
B1 : specific [^3 H]-iloprost binding in presence of test compound
B0 : specific [^3 H]-iloprost binding in absence of test compound

[2] = tested on: human blood platelet aggregation; experiment: Inhibitory effect on human blood platelet aggregation; format: cell-based; conditions: human platelet-rich plasma (5×10^5 platelets/mm^3), compound 1 min prior to ADP (4 μm); read-out: IC50 (inhibition of platelet aggregation)
Method: ii) Inhibitory effect on human blood platelet aggregation
Platelet-rich plasma (PRP) was prepared from human blood (5×10^5 platelets/mm^3), and a test compound was added to PRP 1 min prior to the addition of ADP (4 μm). The aggregation was monitored using a platelet aggregometer (NBS HEMA TRACER 601, Niko Bioscience, Japan).

T1 sequence (P43119 whole entry): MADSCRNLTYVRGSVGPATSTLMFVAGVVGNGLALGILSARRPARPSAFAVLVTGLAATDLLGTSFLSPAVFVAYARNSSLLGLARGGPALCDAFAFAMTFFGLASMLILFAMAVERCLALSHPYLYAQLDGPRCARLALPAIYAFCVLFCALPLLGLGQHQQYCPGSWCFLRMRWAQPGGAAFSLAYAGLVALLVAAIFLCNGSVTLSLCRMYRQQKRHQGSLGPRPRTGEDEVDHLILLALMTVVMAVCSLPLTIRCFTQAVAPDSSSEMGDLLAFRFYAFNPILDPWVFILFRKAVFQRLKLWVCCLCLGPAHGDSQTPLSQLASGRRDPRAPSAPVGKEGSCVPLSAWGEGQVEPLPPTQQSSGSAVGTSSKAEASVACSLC

SMILES	IC50 [1]	IC50 [2]
O=C(O)COc1cccc2c1CCCC2CCC(=O)NC(Cc1ccccc1)c1ccccc1 (centres unmarked) [3 (q), [1-(2-(1,2-Diphenylethyl)aminocarbonylethyl)-1,2,3,4-tetrahydronaphthalen-5-yl]oxyacetic acid]	6.8 µM	–
O=C(O)COc1cccc2c1CCCC2CC(=O)NN(c1ccccc1)c1ccccc1 (centres unmarked) [3 (j), [1-((N,N-Diphenylamino)aminocarbonyimethyl)-1,2,3,4-tetrahydronaphthalen-5-yl]oxyacetic acid]	7.6 µM	–
O=C(O)COc1cccc2c1CCCC2CCC(=O)NN(c1ccccc1)c1ccccc1 (centres unmarked) [3 (p), [1-(2-(N,N-Diphenylamino)aminocarbonylethyl)-1,2,3,4-tetrahydronaphthalen-5-yl]oxyacetic acid]	0.0094 µM	0.11 µM
O=C(O)COc1cccc2c1CCC(CCC(=O)NC(c1ccccc1)c1ccccc1)C2 (centres unmarked) [3 (y), [2-(2-(Diphenylmethylamino)carbonylethyl)-1,2,3,4-tetrahydronaphthalen-5-yl]oxyacetic acid]	1.8 µM	7 µM
O=C(O)COc1cccc2c1CCCC2CCCC(=O)NC(c1ccccc1)c1ccccc1 (centres unmarked) [3 (cc), [1-(3-Diphenylmethylaminocarbonylpropyl)-1,2,3,4-tetrahydronaphthalen-5-yl]oxyacetic acid]	2.7 µM	–
O=C(O)COc1cccc2c1CCCC2CCC(=O)N(c1ccccc1)c1ccccc1 (centres unmarked) [Example 3, [1-(2-Diphenylaminocarbonylethyl)-1,2,3,4-tetrahydronaphthalen-5-yl]oxyacetic acid]	0.68 µM	8.3 µM
O=C(O)COc1cccc2c1CCCC2CCCC(=O)N(Cc1ccccc1)Cc1ccccc1 (centres unmarked) [3 (bb), [1-(3-(N,N-Dibenzylamino)carbonylpropyl)-1,2,3,4-tetrahydronaphthalen-5-yl]oxyacetic acid]	4.1 µM	–
O=C(O)COc1cccc2c1CCC(CCC(=O)NN=C(c1ccccc1)c1ccccc1)C2 (centres unmarked) [3 (aa), [2-(2-(Diphenylmethylideneamino)aminocarbonylethyl)-1,2,3,4-tetrahydronaphthalen-5-yl]oxyacetic acid]	6 µM	–
O=C(O)COc1cccc2c1CCCC2CCCC(=O)N(c1ccccc1)c1ccccc1 (centres unmarked) [3 (dd), [1-(3-(N,N-Diphenylamino)carbonylpropyl)-1,2,3,4-tetrahydronaphthalen-5-yl]oxyacetic acid]	1.7 µM	5.1 µM
O=C(O)COc1cccc2c1CCCC2CCC(=O)NC(c1ccccc1)c1ccccc1 (centres unmarked) [3 (o), [1-(2-Diphenylmethylaminocarbonylethyl)-1,2,3,4-tetrahydronaphthalen-5-yl]oxyacetic acid]	0.21 µM	0.4 µM
O=C(O)COc1cccc2c1CCCC2CCC(=O)N(Cc1ccccc1)Cc1ccccc1 (centres unmarked) [3 (m), [1-(2-Dibenzylaminocarbonylethyl)-1,2,3,4-tetrahydronaphthalen-5-yl]oxyacetic acid]	0.32 µM	–

More lines, now with the values ahead:

IC50 [1]	IC50 [2]	SMILES
0.1 µM	2.3 µM	O=C(O)COc1cccc2c1CCC(CCC(=O)NN(c1ccccc1)c1ccccc1)C2 (centres unmarked) [3 (z), [2-(2-(N,N-Diphenylamino)aminocarbonylethyl)-1,2,3,4-tetrahydronaphthalen-5-yl]oxyacetic acid]
1.8 µM	5.6 µM	CCCN(CC1CCc2c(cccc2OCC(=O)O)C1)C(=O)CN(Cc1ccccc1)c1ccccc1 (centres unmarked) [8 (d), [2-((N-Propyl-N-((N'-benzyl-N'-phenylamino)methylcarbonyl)amino)methyl)-1,2,3,4-tetrahydronaphthalen-5-yl]oxyacetic acid]
8.4 µM	–	CCCN(CCC1CCc2c(cccc2OCC(=O)O)C1)C(=O)CN(Cc1ccccc1)c1ccccc1 (centres unmarked) [10 (b), [2-(2-(N-Propyl-N-((N'-benzyl-N'-phenylamino)methylcarbonyl)amino)ethyl)-1,2,3,4-tetrahydronaphthalen-5-yl]oxyacetic acid]
2.9 µM	–	O=C(O)COc1cccc2c1CCCC2CCC(=O)N(Cc1ccccc1)c1ccccc1 (centres unmarked) [3 (l), [1-(2-(N-Benzyl-N-phenylamino)carbonylethyl)-1,2,3,4-tetrahydronaphthalen-5-yl]oxyacetic acid]
3.1 µM	8 µM	CN(CC1CCc2c(cccc2OCC(=O)O)C1)C(=O)CN(Cc1ccccc1)c1ccccc1 (centres unmarked) [8 (b), [2-((N-Methyl-N-((N'-benzyl-N'-phenylamino)methylcarbonyl)amino)methyl)-1,2,3,4-tetrahydronaphthalen-5-yl]oxyacetic acid]
0.48 µM	–	CCCN(CCC1CCc2c(cccc2OCC(=O)O)C1)C(=O)CN(c1ccccc1)c1ccccc1 (centres unmarked) [10 (a), [2-(2-(N-Propyl-N-(diphenylaminomethylcarbonyl)amino)ethyl)-1,2,3,4-tetrahydronaphthalen-5-yl]oxyacetic acid]
2.3 µM	–	COC(=O)COc1cccc2c1CCC(CN(C)C(=O)CN(c1ccccc1)c1ccccc1)C2 (centres unmarked) [4 (a), Methyl [2-((N-methyl-N-(diphenylaminomethylcarbonyl)amino)methyl)-1,2,3,4-tetrahydronaphthalen-5-yl]oxyacetate]
6.6 µM	–	CN(CC1CCc2c(cccc2OCC(=O)O)C1)C(=O)NC(c1ccccc1)c1ccccc1 (centres unmarked) [Example 7, [2-(N-Methyl-N-(diphenylmethylaminocarbonyl)aminomethyl)-1,2,3,4-tetrahydronaphthalen-5-yl]oxyacetic acid]
0.02 µM	0.62 µM	O=C(O)COc1cccc2c1CCC(CC(=O)NN(c1ccccc1)c1ccccc1)C2 (centres unmarked) [3 (w), [2-((N,N-Diphenylamino)aminocarbonylmethyl)-1,2,3,4-tetrahydronaphthalen-5-yl]oxyacetic acid]
0.18 µM	2.5 µM	CCCN(CC1CCc2c(cccc2OCC(=O)O)C1)C(=O)CN(c1ccccc1)c1ccccc1 (centres unmarked) [8 (c), [2-((N-Propyl-N-(diphenylaminomethylcarbonyl)amino)methyl)-1,2,3,4-tetrahydronaphthalen-5-yl]oxyacetic acid]
1.3 µM	–	CN(CCC1CCc2c(cccc2OCC(=O)O)C1)C(=O)CN(c1ccccc1)c1ccccc1 (centres unmarked) [10 (c), [2-(2-(N-Methyl-N-(diphenylaminomethylcarbonyl)amino)ethyl)-1,2,3,4-tetrahydronaphthalen-5-yl]oxyacetic acid]
0.12 µM	1 µM	O=C(O)COc1cccc2c1CCC(CC(=O)NC(c1ccccc1)c1ccccc1)C2 (centres unmarked) [3 (v), [2-(Diphenylmethylaminocarbonylmethyl)-1,2,3,4-tetrahydronaphthalen-5-yl]oxyacetic acid]
2.7 µM	–	O=C(O)COc1cccc2c1CCC(CCC(=O)N(Cc1ccccc1)Cc1ccccc1)C2 (centres unmarked) [3 (x), [2-(2-(N,N-Dibenzylamino)carbonylethyl)-1,2,3,4-tetrahydronaphthalen-5-yl]oxyacetic acid]
